As usually defined, the IC50 is the point on the concentration scale where inhibition reaches its midpoint. As usually defined, the CC50 is the concentration that lowers cell viability or growth by half. High values mean better tolerance by the cells, low ones harm at low concentration. A word on the EC50: it is the concentration giving half of the maximal effect. A higher EC50 goes with weaker potency.

From ChEMBL document CHEMBL1129665, “2-Sulfonyl-4-chloroanilino moiety: a potent pharmacophore for the anti-human immunodeficiency virus type 1 activity of pyrrolyl aryl sulfones” (J Med Chem, 1996) come the findings set out here.

The target of experiment [1] is Human immunodeficiency virus type 1 reverse transcriptase (Human immunodeficiency virus 1, UniProt Q72547, L100I). In words: Inhibitory activity against HIV rRT activity in HIV-1 mutant resistant to TIBO(L100I) strain.
Experiment [2] has as its target Human immunodeficiency virus type 1 reverse transcriptase (Human immunodeficiency virus 1, UniProt Q72547, Y181C). The experiment is described as follows: Inhibitory activity against HIV rRT activity in mutant HIV-1 strain resistant to Nevirapine (Y181C).
The target of experiment [3] is Human immunodeficiency virus type 1 reverse transcriptase (Human immunodeficiency virus 1, UniProt Q72547). In words: Inhibitory activity against HIV rRT activity in wild type IIIB strain.
Experiment [4] deals with Human immunodeficiency virus type 2 pol protein (Human immunodeficiency virus 2, UniProt P88142). In words: Inhibitory activity against HIV rRT activity in HIV-2.
Chain of Human immunodeficiency virus type 2 pol protein (P88142 whole entry): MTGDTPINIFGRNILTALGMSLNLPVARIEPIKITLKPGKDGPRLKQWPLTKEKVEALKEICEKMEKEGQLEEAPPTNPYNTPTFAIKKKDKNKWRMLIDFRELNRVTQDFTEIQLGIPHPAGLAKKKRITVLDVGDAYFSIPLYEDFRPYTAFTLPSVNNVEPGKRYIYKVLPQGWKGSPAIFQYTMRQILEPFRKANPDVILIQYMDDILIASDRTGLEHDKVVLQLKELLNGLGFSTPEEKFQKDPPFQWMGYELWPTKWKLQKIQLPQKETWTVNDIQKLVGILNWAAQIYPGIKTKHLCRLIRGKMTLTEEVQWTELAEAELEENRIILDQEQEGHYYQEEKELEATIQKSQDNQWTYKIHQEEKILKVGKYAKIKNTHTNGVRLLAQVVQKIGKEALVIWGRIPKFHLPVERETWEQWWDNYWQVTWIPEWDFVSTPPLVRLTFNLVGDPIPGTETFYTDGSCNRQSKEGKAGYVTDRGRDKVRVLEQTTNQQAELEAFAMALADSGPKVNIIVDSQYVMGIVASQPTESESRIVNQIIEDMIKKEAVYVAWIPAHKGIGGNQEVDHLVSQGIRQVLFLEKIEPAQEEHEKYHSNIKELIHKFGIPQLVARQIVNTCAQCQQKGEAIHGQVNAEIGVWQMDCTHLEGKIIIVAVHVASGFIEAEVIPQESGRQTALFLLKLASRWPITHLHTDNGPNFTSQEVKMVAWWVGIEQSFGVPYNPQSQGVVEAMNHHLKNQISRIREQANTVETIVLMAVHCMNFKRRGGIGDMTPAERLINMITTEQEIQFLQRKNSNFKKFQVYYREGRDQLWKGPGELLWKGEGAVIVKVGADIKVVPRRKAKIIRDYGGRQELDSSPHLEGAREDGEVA
Experiment [5] relates to MT4. The experiment is described as follows: Concentration required to reduce the viability of mock-infected MT-4 cells by 50%. It is filed as functional. The note with it: Homo sapiens.
Experiment [6] relates to MT4. The experiment is described as follows: Effective concentration against HIV-1 induced cytopathogenicity in MT-4 cells. The class given is functional, cell-based. The note with it: Homo sapiens. On the technique in general: Damage to the host cells serves as the signal in cytopathic effect assays.
The test system of experiment [7] is MT4. The experiment is described as follows: Selectivity index expressed as the ratio of CC50/ EC50. The class given is functional, Homo sapiens.

With `CC(C)=CCN1Cc2cccc3nc(S)n(c23)C[C@H]1C`, the IC50 in experiment [1] was over 20 µM; in experiment [2], 9 µM; in experiment [3] it was 0.9 µM; in experiment [4], over 20 µM.

With `CCOC(=O)CC(=O)Nc1ccc(Cl)cc1S(=O)(=O)n1cccc1C(=O)OCC`, in the experiment with MT4 [5], it took 290 µM to reach half-maximal cytotoxicity (CC50). Besides, in the experiment on MT4 [6], the EC50 was 2.6 µM. Further, the IC50 in experiment [1], in experiment [2], in experiment [3] and in experiment [4] was over 20 µM throughout. The Ratio with MT4 [7] stood at 111.

With `CCCOC(=O)c1cccn1S(=O)(=O)c1cc(Cl)ccc1N`, the CC50 with MT4 [5] came out at 110 µM. In the experiment with MT4 [6], this compound returned an EC50 of 0.22 µM. For the same compound, the IC50 in experiment [1] was 10 µM; in experiment [2], 5 µM; in experiment [3], 0.4 µM; in experiment [4] it was over 20 µM. The Ratio with MT4 [7] came out at 500.

Consider `C=CCOC(=O)c1cccn1S(=O)(=O)c1cc(Cl)ccc1N`, for which the CC50 in the experiment on MT4 [5] was determined as 100 µM. The EC50 in the experiment on MT4 [6] stood at 0.4 µM. The IC50 in experiment [1] is over 20 µM; in experiment [2] it was 14 µM; in experiment [3], 0.9 µM; in experiment [4] it was over 20 µM. Besides, the Ratio in the experiment on MT4 [7] is recorded as 250.

On to `CCOC(=O)c1cccn1S(=O)(=O)c1cc(Cl)ccc1N`, for which, in the experiment on MT4 [5], the CC50 was over 300 µM. Besides, the EC50 in the experiment on MT4 [6] was 0.14 µM. Moreover, the IC50 in experiment [1] is 8.5 µM; in experiment [2], 7.5 µM; in experiment [3] it was 0.4 µM; in experiment [4], over 20 µM. The Ratio in the experiment on MT4 [7] is reported as over 2140.

The compound `CCOC(=O)c1cccn1S(=O)(=O)c1cc(C)ccc1[N+](=O)[O-]` gave a CC50 with MT4 [5] of over 300 µM. In addition, the midpoint of the response with MT4 [6], the EC50, lay at 9.8 µM. Further, the IC50 in experiment [1] was over 20 µM; in experiment [2] it was over 20 µM; in experiment [3], 5 µM; in experiment [4] it was over 20 µM. Also, the Ratio with MT4 [7] is over 30.6.

As to `CCOC(=O)c1cccn1S(=O)(=O)c1cc(Cl)ccc1NC(C)=O`, the CC50 in the experiment with MT4 [5] is over 300 µM. For the same compound, in the experiment with MT4 [6], the EC50 was determined as 1 µM. The IC50 in experiment [1], in experiment [2], in experiment [3] and in experiment [4] was over 20 µM each time. For the same compound, the Ratio entry in the experiment with MT4 [7] is listed as “>=300”.

With `CCOC(=O)c1cccn1S(=O)(=O)c1cc(Cl)ccc1NC(=O)CC`, in the experiment with MT4 [5], the CC50 was over 300 µM. In the experiment with MT4 [6], this compound returned an EC50 of 1 µM. The IC50 in experiment [1], in experiment [2], in experiment [3] and in experiment [4] was over 20 µM throughout. In the experiment with MT4 [7], the Ratio is over 300.

`CCOC(=O)c1cccn1S(=O)(=O)c1cc(Cl)ccc1NC=O` had a CC50 in the experiment with MT4 [5] of over 300 µM. For the same compound, the response in the experiment with MT4 [6] was half-maximal at 1 µM (EC50). Also, the IC50 in experiment [1], in experiment [2], in experiment [3] and in experiment [4] was over 20 µM each time. Also, the Ratio with MT4 [7] is over 300.

`COC(=O)c1cccn1S(=O)(=O)c1cc(N)ccc1Cl` displayed a CC50 in the experiment on MT4 [5] of 150 µM. The EC50 in the experiment on MT4 [6] turned out to be 75 µM. Moreover, the Ratio in the experiment with MT4 [7] is 2.

In turn, `Cc1ccnc2c1NC(=O)c1cccnc1N2C1CC1` [NEVIRAPINE] came in with a CC50 in the experiment on MT4 [5] of under 300 µM. For the same compound, the IC50 in experiment [4] was over 20 µM.

On to `COC(=O)c1cccn1S(=O)(=O)c1cc(Cl)ccc1N`, for which the CC50 in the experiment with MT4 [5] is over 300 µM. The compound also came in with a concentration giving a half-maximal response (EC50) in the experiment with MT4 [6] of 0.18 µM. Besides, the IC50 in experiment [1] is 7.4 µM; in experiment [2], 6.9 µM; in experiment [3], 0.45 µM; in experiment [4], over 20 µM. For the same compound, the Ratio with MT4 [7] is listed as over 1666.

For the compound `CCN(CC)CCOC(=O)c1cccn1S(=O)(=O)c1cc(Cl)ccc1N`, the CC50 with MT4 [5] is 162 µM. In the experiment with MT4 [6], this compound came in with an EC50 of 12 µM. In the experiment with MT4 [7], the Ratio was 13.5.

In turn, `Nc1ccc(Cl)c(S(=O)(=O)n2ccc3ccccc32)c1` gave a CC50 in the experiment with MT4 [5] of over 300 µM. In the experiment on MT4 [6], this compound had an EC50 of 150 µM. Moreover, in the experiment with MT4 [7], the Ratio is over 2.

`CCOC(=O)c1cccn1S(=O)(=O)c1cc(C)ccc1N` displayed a CC50 in the experiment on MT4 [5] of over 300 µM. Further, the EC50 in the experiment on MT4 [6] amounted to 1.7 µM. For the same compound, the IC50 in experiment [1] was over 20 µM; in experiment [2], over 20 µM; in experiment [3] it was 4 µM; in experiment [4] it was over 20 µM. The Ratio in the experiment with MT4 [7] is listed as over 176.

In the case of `COC(=O)c1cccn1S(=O)(=O)c1ccccc1[N+](=O)[O-]`, the cytotoxic concentration (CC50) in the experiment on MT4 [5] is over 300 µM. In the experiment with MT4 [6], the EC50 came out at 5 µM. Moreover, the Ratio in the experiment with MT4 [7] was over 60.

`CC(C)OC(=O)c1cccn1S(=O)(=O)c1cc(Cl)ccc1N`: the CC50 in the experiment with MT4 [5] is over 300 µM. Further, the EC50 with MT4 [6] is 0.14 µM. For the same compound, the concentration for half-maximal inhibition (IC50) is 14 µM in experiment [1], 8 µM in experiment [2], 0.27 µM in experiment [3] and over 20 µM in experiment [4]. For the same compound, the Ratio with MT4 [7] is over 2140.

In the experiment with MT4 [5], `O=C(NCc1ccccc1)c1cccn1S(=O)(=O)c1ccccc1F` came in with a CC50 of over 300 µM. Further, in the experiment on MT4 [6], the midpoint of the response, the EC50, lay at 40 µM. Besides, the Ratio in the experiment on MT4 [7] is on record as 7.

Regarding `O=[N+]([O-])c1ccccc1S(=O)(=O)n1ccc2ccccc21`, the CC50 with MT4 [5] is 24 µM. Further, the EC50 in the experiment with MT4 [6] was determined as 5 µM. For the same compound, the Ratio in the experiment on MT4 [7] came out at 5.
